In patent US12528767B2, “HDAC6 inhibitors and uses thereof” (Eikonizo Therapeutics, Inc., priority 2019, dated 2026):
pIC50: −log10 of the molar value. Read-outs that look alike come from different tables or passages of the source.

What was measured:
Human HDAC7 aa 518-end = biological target: T1, Human HDAC7 aa 518-end (Homo sapiens, UniProt Q8WUI4)
T1 sequence (Q8WUI4 518-952 limits assumed): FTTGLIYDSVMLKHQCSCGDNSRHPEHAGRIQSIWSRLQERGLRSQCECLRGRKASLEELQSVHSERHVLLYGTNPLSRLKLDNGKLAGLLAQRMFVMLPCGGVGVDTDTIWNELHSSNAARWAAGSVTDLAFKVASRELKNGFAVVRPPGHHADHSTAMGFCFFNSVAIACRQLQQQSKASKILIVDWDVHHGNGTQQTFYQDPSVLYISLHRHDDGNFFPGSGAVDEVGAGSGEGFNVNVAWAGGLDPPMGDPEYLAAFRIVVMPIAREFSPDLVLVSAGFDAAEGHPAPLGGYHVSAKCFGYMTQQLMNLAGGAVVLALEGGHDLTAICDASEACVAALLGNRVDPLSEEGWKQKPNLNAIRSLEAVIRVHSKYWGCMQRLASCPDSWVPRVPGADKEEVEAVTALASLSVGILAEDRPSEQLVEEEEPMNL

Full length Human HDAC10 = biological target: T2, Full length Human HDAC10 (Homo sapiens, UniProt Q969S8)
T2 sequence (Q969S8 1-669): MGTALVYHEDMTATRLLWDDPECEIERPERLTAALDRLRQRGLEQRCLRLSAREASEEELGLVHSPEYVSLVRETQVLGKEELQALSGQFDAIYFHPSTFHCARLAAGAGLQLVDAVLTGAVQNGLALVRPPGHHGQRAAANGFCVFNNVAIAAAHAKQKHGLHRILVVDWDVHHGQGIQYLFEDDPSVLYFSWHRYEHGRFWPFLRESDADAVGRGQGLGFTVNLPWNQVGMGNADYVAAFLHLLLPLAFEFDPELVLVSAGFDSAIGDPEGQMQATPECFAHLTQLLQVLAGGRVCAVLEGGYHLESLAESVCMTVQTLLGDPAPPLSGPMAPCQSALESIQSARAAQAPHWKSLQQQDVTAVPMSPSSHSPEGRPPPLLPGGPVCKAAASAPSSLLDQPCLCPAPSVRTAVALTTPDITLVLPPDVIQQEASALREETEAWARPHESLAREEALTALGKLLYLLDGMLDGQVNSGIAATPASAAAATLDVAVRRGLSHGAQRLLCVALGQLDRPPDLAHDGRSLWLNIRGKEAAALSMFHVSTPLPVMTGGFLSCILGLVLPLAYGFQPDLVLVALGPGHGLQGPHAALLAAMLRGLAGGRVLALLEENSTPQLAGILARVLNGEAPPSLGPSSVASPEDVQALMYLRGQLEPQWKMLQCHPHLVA

Full length Human HDAC6 = biological target: T3, Full length Human HDAC6 (Homo sapiens, UniProt Q9UBN7); details: for Selectivity (6 v 8) (fold): ratio of HDAC8 IC50/HDAC6 IC50
T3 sequence (Q9UBN7 1-1215): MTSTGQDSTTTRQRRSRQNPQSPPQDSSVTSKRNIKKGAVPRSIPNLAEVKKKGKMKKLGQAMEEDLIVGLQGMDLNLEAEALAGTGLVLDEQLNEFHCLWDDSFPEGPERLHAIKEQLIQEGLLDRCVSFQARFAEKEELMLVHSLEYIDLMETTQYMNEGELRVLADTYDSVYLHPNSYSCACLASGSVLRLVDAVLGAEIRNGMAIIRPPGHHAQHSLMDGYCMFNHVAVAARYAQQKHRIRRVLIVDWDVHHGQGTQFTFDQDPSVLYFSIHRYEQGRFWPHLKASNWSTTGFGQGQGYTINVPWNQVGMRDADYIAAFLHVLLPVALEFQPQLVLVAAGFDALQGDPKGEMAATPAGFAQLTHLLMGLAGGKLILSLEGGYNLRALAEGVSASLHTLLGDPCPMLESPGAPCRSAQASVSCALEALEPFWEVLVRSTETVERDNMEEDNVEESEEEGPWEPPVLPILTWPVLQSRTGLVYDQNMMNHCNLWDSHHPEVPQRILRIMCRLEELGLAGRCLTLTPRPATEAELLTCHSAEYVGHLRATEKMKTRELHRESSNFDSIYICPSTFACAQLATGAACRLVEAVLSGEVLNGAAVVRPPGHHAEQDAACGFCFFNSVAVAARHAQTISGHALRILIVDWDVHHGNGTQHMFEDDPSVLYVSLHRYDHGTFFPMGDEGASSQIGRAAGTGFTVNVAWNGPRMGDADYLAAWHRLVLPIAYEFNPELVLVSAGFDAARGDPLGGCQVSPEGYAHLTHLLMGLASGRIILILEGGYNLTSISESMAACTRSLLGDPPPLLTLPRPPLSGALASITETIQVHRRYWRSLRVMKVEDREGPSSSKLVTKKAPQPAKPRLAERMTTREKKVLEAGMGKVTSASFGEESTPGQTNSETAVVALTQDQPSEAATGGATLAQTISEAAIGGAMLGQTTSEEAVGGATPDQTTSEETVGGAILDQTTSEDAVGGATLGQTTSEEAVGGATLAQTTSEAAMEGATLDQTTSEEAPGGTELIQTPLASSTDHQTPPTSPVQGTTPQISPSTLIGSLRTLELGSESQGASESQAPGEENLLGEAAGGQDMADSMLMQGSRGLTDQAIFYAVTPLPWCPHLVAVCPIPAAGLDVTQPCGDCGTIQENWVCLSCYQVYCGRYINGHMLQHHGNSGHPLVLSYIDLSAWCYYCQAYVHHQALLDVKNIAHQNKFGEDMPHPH

Full length Human HDAC8 = biological target: T4, Full length Human HDAC8 (Homo sapiens, UniProt Q9BY41)
T4 sequence (Q9BY41 1-377): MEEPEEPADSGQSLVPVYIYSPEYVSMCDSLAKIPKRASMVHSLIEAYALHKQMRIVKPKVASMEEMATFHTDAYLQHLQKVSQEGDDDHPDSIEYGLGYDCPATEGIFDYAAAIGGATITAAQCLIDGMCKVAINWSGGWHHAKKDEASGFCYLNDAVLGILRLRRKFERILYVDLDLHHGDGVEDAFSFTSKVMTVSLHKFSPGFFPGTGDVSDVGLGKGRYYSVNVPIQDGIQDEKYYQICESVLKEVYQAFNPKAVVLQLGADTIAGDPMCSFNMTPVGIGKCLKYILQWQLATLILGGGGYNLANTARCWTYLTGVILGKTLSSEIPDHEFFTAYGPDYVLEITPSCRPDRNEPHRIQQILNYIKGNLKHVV

[1] = read-out: In vitro enzymatic IC50, HDAC Paralog 8, Table 2
[2] = read-out: In vitro enzymatic IC50, HDAC Paralog 6, Table 2

Row | Structure (SMILES) | pIC50 (Human HDAC7 aa 518-end) | pIC50 (Full length Human HDAC10) | pIC50 (Full length Human HDAC6) | pIC50 (Full length Human HDAC8) | pIC50 (Full length Human HDAC8; [1]) | pIC50 (Full length Human HDAC6; [2]) | Selectivity (6 v 8) (fold) (Full length Human HDAC6; Table 1, number) | Selectivity (6 v 8) (fold) (Full length Human HDAC6; Table 1, range class)
1 | O=C(NO)c1cc(F)c2c(c1)CCN(CC1CCCCC1)C2 [compound 19] | 4.00 to 5.00 | 4.00 to 5.00 | 7.00 to 9.00 | 5.00 to 6.00 | 5.00 to 6.00 | 7.00 to 9.00 | – | –
2 | CC(C)(C)CN1CCc2cc(C(=O)NO)cc(F)c2C1 [compound 20] | < 4.00 | 4.00 to 5.00 | 7.00 to 9.00 | 4.00 to 5.00 | 4.00 to 5.00 | 7.00 to 9.00 | – | –
3 | O=C(NO)c1cc(F)c2c(c1)CCN(C1COC1)C2 [compound 24] | 5.00 to 6.00 | < 4.00 | 7.00 to 9.00 | 5.00 to 6.00 | 5.00 to 6.00 | 7.00 to 9.00 | – | –
4 | O=C(NO)c1cc(F)c2c(c1)CCN(CC1COC1)C2 [compound 27] | 5.00 to 6.00 | < 4.00 | 7.00 to 9.00 | 4.00 to 5.00 | 4.00 to 5.00 | 7.00 to 9.00 | – | –
5 | O=C(NO)c1ccc(CN2C3CCC2CC(=NO)C3)c(F)c1 [compound 54] | 5.00 to 6.00 | < 4.00 | 7.00 to 9.00 | 6.00 to 7.00 | 6.00 to 7.00 | 7.00 to 9.00 | 38.9 | III (III: >10-100)
6 | O=C(NO)c1ccc(CN2C3CCC2COC3)c(F)c1 [compound 59] | 5.00 to 6.00 | 4.00 to 5.00 | 7.00 to 9.00 | 6.00 to 7.00 | 6.00 to 7.00 | 7.00 to 9.00 | – | –
7 | O=C(NO)c1ccc(CN2C3CCCC2CCC3)c(F)c1 [compound 60] | 5.00 to 6.00 | < 4.00 | 6.00 to 7.00 | 5.00 to 6.00 | 5.00 to 6.00 | 6.00 to 7.00 | 5.8 | II (II: >1-10)
8 | O=C(NO)c1ccc(CN2C3CCCC2CC3)c(F)c1 [compound 61] | 5.00 to 6.00 | < 4.00 | 6.00 to 7.00 | 5.00 to 6.00 | 5.00 to 6.00 | 6.00 to 7.00 | 9.6 | II (II: >1-10)
9 | O=C(NO)c1cc(F)c(CN2CCC3(CCCCC3)C2)cc1F [compound 67] | 5.00 to 6.00 | 4.00 to 5.00 | 7.00 to 9.00 | 5.00 to 6.00 | 5.00 to 6.00 | 7.00 to 9.00 | 20 | III (III: >10-100)
10 | O=C(NO)c1ccc(CN2CCC3(CCCCC3)CC2)c(F)c1 [compound 74] | 5.00 to 6.00 | 4.00 to 5.00 | 6.00 to 7.00 | 5.00 to 6.00 | 5.00 to 6.00 | 6.00 to 7.00 | 24.9 | III (III: >10-100)

The next lines start with the values.

Row | pIC50 (Human HDAC7 aa 518-end) | pIC50 (Full length Human HDAC10) | pIC50 (Full length Human HDAC6) | pIC50 (Full length Human HDAC8) | pIC50 (Full length Human HDAC8; [1]) | pIC50 (Full length Human HDAC6; [2]) | Selectivity (6 v 8) (fold) (Full length Human HDAC6; Table 1, number) | Selectivity (6 v 8) (fold) (Full length Human HDAC6; Table 1, range class) | Structure (SMILES)
11 | 4.00 to 5.00 | 4.00 to 5.00 | 7.00 to 9.00 | 5.00 to 6.00 | 5.00 to 6.00 | – | – | – | O=C(NO)c1cc(F)c2c(c1)CCN([C@@H]1CCC3(CCCCC3)C1)C2 (single isomer, unassigned) [compound 110]
12 | 5.00 to 6.00 | < 4.00 | 7.00 to 9.00 | 5.00 to 6.00 | 5.00 to 6.00 | 7.00 to 9.00 | – | – | O=C(NO)c1cc(F)c2c(c1)CC1CCCN1C2 (single isomer, unassigned) [compound 120]
13 | 5.00 to 6.00 | < 4.00 | 7.00 to 9.00 | 5.00 to 6.00 | – | – | – | – | CC1(C)C[C@@H]2Cc3c(F)cc(C(=O)NO)cc3CN2C1 (single isomer, unassigned) [compound 127]
14 | 5.00 to 6.00 | < 4.00 | 6.00 to 7.00 | 5.00 to 6.00 | – | – | – | – | CC1(C)C[C@H]2Cc3c(F)cc(C(=O)NO)cc3CN2C1 (single isomer, unassigned) [compound 128]
15 | 4.00 to 5.00 | 4.00 to 5.00 | 7.00 to 9.00 | 5.00 to 6.00 | – | – | – | – | O=C(NO)c1ccc2c(c1)C[C@H]1COCC(=O)N1C2 (single isomer, unassigned) [compound 134]
16 | 5.00 to 6.00 | < 4.00 | 7.00 to 9.00 | 5.00 to 6.00 | – | – | – | – | O=C(NO)c1cc(F)c2c(c1)C[C@@H]1CC3(CCCCC3)CN1C2 (single isomer, unassigned) [compound 136]
17 | 5.00 to 6.00 | 4.00 to 5.00 | 7.00 to 9.00 | 5.00 to 6.00 | – | – | – | – | O=C(NO)c1cc(F)c2c(c1)CCN1CCCC[C@@H]21 (single isomer, unassigned) [compound 139]
18 | 6.00 to 7.00 | 4.00 to 5.00 | 7.00 to 9.00 | 5.00 to 6.00 | – | – | – | – | C[C@H]1CC[C@H]2c3c(F)cc(C(=O)NO)cc3CCN12 (single isomer, unassigned) [compound 157]
19 | 6.00 to 7.00 | < 4.00 | 7.00 to 9.00 | 5.00 to 6.00 | – | – | – | – | C[C@@H]1CC[C@H]2c3c(F)cc(C(=O)NO)cc3CCN12 (single isomer, unassigned) [compound 158]
20 | 5.00 to 6.00 | 4.00 to 5.00 | 7.00 to 9.00 | 5.00 to 6.00 | 5.00 to 6.00 | 7.00 to 9.00 | 68 | III (III: >10-100) | CN1CC2(CCCCC2)CC[C@@H]1Cc1cc(F)cc(C(=O)NO)c1 (single isomer, unassigned) [compound 170]
21 | 4.00 to 5.00 | < 4.00 | 5.00 to 6.00 | 6.00 to 7.00 | 6.00 to 7.00 | 5.00 to 6.00 | 0.4 | I (I: 0.1-1) | O=C(NO)c1ccc(CN2CCC3(C2)C2CC4CC(C2)CC3C4)c(F)c1 (centres unmarked) [compound 78]
